# Patent publication US6362394B1, “Juvenile hormone or one of its agonists as a chemical ligand to control gene expression in plants by receptor mediated transactivation” (Syngenta Participations AG, priority 1995, dated 2002)
# Experiments:
# [1] = biological target: T1, receptor polypeptides GAL4-EcR^330-825-C1 and USP-VP16 (Drosophila melanogaster, UniProt P20153+P34021); experiment: Tebufenozide-induced activation by GAL4-EcR-C1 + USP-VP16 of a luciferase target cassette in maize cells, and its block by methoprene; assay type: cell-based; settings: approximately 48 hours
# T1 construct: expressed in transfected cells; host or cells: maize suspension cells, microprojectile bombardment
# Description: (§1) Control of target polypeptide expression by various receptor polypeptides, including the chimeric receptor polypeptides of the present invention, can be shown by simultaneously transforming plant cells with the necessary gene constructions using high velocity microprojectile bombardment, followed by biochemical assay for the presence of the target polypeptide. The necessary gene constructions comprise a USP receptor expression cassette which encodes a USP receptor polypeptide (FIG. 1). Optionally, the USP receptor expression cassette may be transformed along with a secondary receptor expression cassette which encodes a receptor polypeptide distinct from USP (FIGS. 2 and 3). In addition, a target expression cassette which encodes a target polypeptide is also necessary.
# (§2) The expression cassettes were simultaneously delivered to maize suspension cells cultured in liquid N6 medium (Chu et al. Scientia Sinica XVIII:659-668, 1975) by high velocity microprojectile bombardment using standard techniques of DNA precipation onto microprojectiles and high velocity bombardment driven by compressed helium (PDS1000/He, BioRad, Hercules, Calif.). Transfected cells were incubated in liquid suspension in the presence of the appropriate chemical ligand for approximately 48 hours in N6 media. After incubation, the transformed cells were harvested then homogenized at 0° C. Debris in the extracts was removed by centrifugation at 10,000 g at 4° C. for 5 minutes.
# (§3) Target polypeptide expression was detected by assaying the extract for the presence of the product encoded by the target expression cassette. One commonly used coding sequence for the target polypeptide when testing control of expression by the receptor polypeptides in the presence of a chemical ligand is firefly luciferase. The activity of firefly luciferase is determined by quantitating the chemiluminescence produced by luciferase catalyzed phosphorylation of luciferin using ATP as substrate (Promega Luciferase Kit, cat. no. E1500), using an Analytical Luminescence Model 2001 luminometer. […]
# [2] = biological target: T2, receptor polypeptides GAL4-EcR^330-825-C1 and USP-VP16 (Drosophila melanogaster, UniProt P20153); experiment: Reversal by juvenile hormone agonists of GAL4-EcR-C1 + USP-VP16 activation of a luciferase target cassette in transformed maize cells; assay type: cell-based; settings: 10 μM ligand, approximately 48 hours
# T2 construct: expressed in transfected cells; host or cells: maize suspension cells, microprojectile bombardment
# T2 sequence (P06492 411-490, one chain of several): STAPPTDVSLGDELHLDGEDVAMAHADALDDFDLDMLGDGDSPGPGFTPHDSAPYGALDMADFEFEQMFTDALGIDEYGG
# Description: as §1, §2, §3
# RXRα = biological target: T3, RXRα (Homo sapiens, UniProt P19793); settings: insect and mammalian cells; cited from earlier work
# T3 construct: host or cells: insect and mammalian cells (as reported by Harmon et al.)
# T3 sequence (P19793 1-462): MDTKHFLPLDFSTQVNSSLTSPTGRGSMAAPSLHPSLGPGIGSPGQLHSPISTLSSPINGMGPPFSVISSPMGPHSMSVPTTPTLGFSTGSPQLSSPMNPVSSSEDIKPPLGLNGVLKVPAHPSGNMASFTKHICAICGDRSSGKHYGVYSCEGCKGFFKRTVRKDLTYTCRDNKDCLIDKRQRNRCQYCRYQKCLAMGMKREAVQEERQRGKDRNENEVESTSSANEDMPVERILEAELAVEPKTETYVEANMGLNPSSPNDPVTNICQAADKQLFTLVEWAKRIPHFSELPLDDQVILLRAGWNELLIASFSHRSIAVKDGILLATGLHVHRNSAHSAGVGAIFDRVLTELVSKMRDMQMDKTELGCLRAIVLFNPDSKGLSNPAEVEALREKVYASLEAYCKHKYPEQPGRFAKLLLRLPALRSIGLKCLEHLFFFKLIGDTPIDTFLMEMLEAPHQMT
# [3] = biological target: T4, receptor polypeptide VP16-USP (Drosophila melanogaster, UniProt P20153); experiment: VP16-USP activation of a direct repeat luciferase target cassette in transformed maize cells; assay type: cell-based; parameters: expressed in transfected cells; settings: 35S/VP16-USP, target (DR3)3-Bz1TATA/Luc, 10 μM ligand, 48 hours, no ligand 29,967
# T4 sequence (P06492 413-490, one chain of several): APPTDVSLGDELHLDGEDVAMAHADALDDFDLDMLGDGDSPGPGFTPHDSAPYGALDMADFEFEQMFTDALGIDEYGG
# Description: as §1, with “necessary. […]” for “necessary.”
# as §3, with “One commonly used coding sequence for the target polypeptide when testing control of expression by the receptor polypeptides in the presence of a chemical ligand is firefly luciferase.” left out
# [4] = biological target: T4, receptor polypeptide VP16-USP; experiment: Chemical induction of luciferase in isolated leaves of transgenic Arabidopsis expressing VP16-USP with a DR-Luciferase reporter; assay type: cell-based; parameters: expressed in transfected cells; host or cells: transgenic Arabidopsis thaliana (Columbia), isolated leaves; Agrobacterium T-DNA construct; settings: approximately 24 hours; for Fold increase in luciferase activity: 10 μM; for Luciferase Activity: 35S/VP16-USP, 10 μM ligand in 0.1% ethanol, light units per 10 seconds per 100 μg extract protein, control 638
# Description: Arabidopsis thaliana (Columbia) was transformed with an Agrobacterium vector harboring a CaMV 35S promoter and a DR-Luciferase reporter (as described in Example 13 above) by the following vacuum-infiltration procedure. Electrocompetent GV3101 Agrobacterium cells were prepared by incubating GV3101 Agrobacterium in 2×YT media at 28° C. with aeration for 24-30 hours to an OD600 of 0.5-0.7 units. Cells were chilled on ice for 10-30 minutes, and centrifuged at 5,000 RPM for 5 minutes at 4° C. The supernatant was discarded, and the cell pellet resuspended in 1 volume of ice-cold 10% glycerol. Cells were again centrifuged at 5,000 RPM for 5 minutes at 4° C. The supernatant was discarded, and the cell pellet resuspended in 0.05 volumes of ice-cold 10% glycerol. Cells were again centrifuged at 5,000 RPM for 5 minutes at 4° C. The supernatant was discarded, and the cell pellet resuspended in 0.02 volume of ice-cold 10% glycerol. Cells were again centrifuged at 5,000 RPM for 5 minutes at 4° C. The supernatant was discarded, and the cell pellet resuspended 0.02 volume of ice-cold 10% glycerol. Cells were again centrifuged at 5,000 RPM for 5 minutes at 4° C. The supernatant was discarded, and the cell pellet resuspended in 0.01 volume of ice-cold 10% glycerol. Cells were aliquoted in […] amounts per 1.5 ml microfuge tubes, quick-frozen in liquid N2, and stored at −80° C. Electrocompetent cells were used before 6 weeks storage at −80° C. Frozen electrocompetent cells were thawed on ice and 40 ml transfered to a pre-chilled 1.5 ml microfuge tube. 1 ml of the appropriate Agrobacterium plasmid DNA (2-10 ng) was added to the thawed cells and mixed on ice. The cell/plasmid mixture was transfered to a prechilled 0.2 cm Bio-Rad electroporation cuvette, and electroporated at 2.0 KVolts, 600 Ohms, 25 μFarad, with a 6 msec time constant. 1 †ml of 2×YT media was added to the electroporation cuvette, the cell/plasmid solution was mixed with a pipet tip, and the contents transfered to a fresh 1.5 ml microfuge tube. Cells were then incubated at […] for 1 hour on a shaker at 200 RPM. The cells were centrifuged down for 2 minutes at a setting of 6 in an Eppendorph adjustable-speed microfuge, the supernatant decanted, and the cell pellet resuspended in the remaining liquid. Resuspended cells were spread on an LB media plate with the appropriate antibiotic. Plates were incubated at 28-30° C. for […]. A 50 ml LB culture was innoculated with a single transformed colony in a 250 ml flask with Rifampicin at 100 μg/ml and Gentomycin at 25 μg/ml and Kanamycin at 100 μg/ml. The culture was incubated for 24-36 hours at 28° C. at 250 RPM and 10 ml of the culture was used to innoculate 500 ml LB+antibiotics in a 2-liter flask. This culture was incubated overnight at 28° C. with shaking at 250 RPM. […]
# USP = biological target: T5, USP (Drosophila melanogaster, UniProt P20153); settings: Drosophila cell-culture assays; conditions in which RXR is responsive; cited from earlier work
# T5 construct: host or cells: Drosophila cell culture (as reported by Oro et al. and Harmon et al.)
# T5 sequence (P20153 1-508): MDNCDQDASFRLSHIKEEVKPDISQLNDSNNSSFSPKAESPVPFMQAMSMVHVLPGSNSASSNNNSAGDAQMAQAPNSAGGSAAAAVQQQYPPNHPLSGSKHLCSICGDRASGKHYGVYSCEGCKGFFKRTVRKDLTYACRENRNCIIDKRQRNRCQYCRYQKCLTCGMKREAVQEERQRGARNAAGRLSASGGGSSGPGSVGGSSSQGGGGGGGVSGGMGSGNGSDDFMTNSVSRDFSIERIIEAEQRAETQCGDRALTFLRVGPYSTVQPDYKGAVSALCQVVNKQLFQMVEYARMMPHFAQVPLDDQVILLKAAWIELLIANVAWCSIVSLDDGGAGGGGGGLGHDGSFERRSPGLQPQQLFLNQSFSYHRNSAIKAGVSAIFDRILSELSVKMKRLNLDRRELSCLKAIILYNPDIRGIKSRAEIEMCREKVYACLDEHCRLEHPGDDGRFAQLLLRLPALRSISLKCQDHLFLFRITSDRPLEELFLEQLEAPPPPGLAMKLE
# [5] = biological target: USP-VP16 chimeric receptor polypeptide (Drosophila; herpes simplex virus) (UniProt P20153); experiment: cell-based or functional assay
# [6] = Experiment #1, 35S/GAL4-EcR^330-825-C1 + 35S/USP-VP16, target (GAL4b.s.)10-Bz1TATA/Luc, no ligand 277,862
compound,measurement,setting,value
COC(C)(C)CCC[C@H](C)C/C=C/C(C)=C/C(=O)OC(C)C (racemic) [Methoprene],Effect on tebufenozide-induced activation of luciferase gene expression,[1]; 10 μM methoprene with 10 μM tebufenozide,completely blocked
same,Luciferase Activity,[2]; [6],"14,786 light units"
same,Luciferase Activity,"[2]; Experiment #2, 35S/GAL4-EcR^330-825-C1 + 35S/USP-VP16, target (GAL4b.s.)10-Bz1TATA/Luc, no ligand 178,092","5,730 light units"
same,RXRα-mediated transcriptional activation of a recombinant reporter gene,RXRα,transcriptionally activate
same,Luciferase Activity,[3],"485,458 light units"
same,Fold increase in luciferase activity,[4],25 fold
same,Luciferase Activity,[4],"15,790 light units"
"CCOC(=O)NCCOc1ccc(Oc2ccccc2)cc1 [Fenoxycarb, ethyl [2-(4-phenoxyphenoxy)ethyl]carbamate]",Luciferase Activity,[2]; [6],"77,418 light units"
same,Fold increase in luciferase activity,[4],6.2 fold
same,Luciferase Activity,[4],"3,991 light units"
CCc1ccc(C(=O)NN(C(=O)c2cc(C)cc(C)c2)C(C)(C)C)cc1 [Tebufenozide],"Tebufenozide-induced activation of luciferase gene expression, fold increase when used alone",[1]; 10 μM,approximately 6 fold
same,Luciferase Activity,"[1]; 35S/GAL4-EcR^330-825-C1 + 35S/USP-VP16, target (GAL4b.s.)10-Bz1TATA/Luc, 10 μM each ligand, no ligand 178,092","908,912 light units"
COC(C)(C)CCCC(C)C/C=C/C(C)=C/C(=O)O (centres unmarked) [methoprene acid],RXRα-mediated transcriptional activation of a recombinant reporter gene,RXRα,transcriptionally activate
same,Activation / response of USP,USP,does not respond
GAL4-EcR^330-825-C1 chimeric receptor polypeptide (from UniProt P04386 1-147; P34021 330-825; P10290 219-273),"Luciferase Activity (light units) of the (GAL4b.s.)10-Bz1TATA/Luc reporter in maize cells, Experiment #1, no chemical ligand",[5],278000 light units
same,"Luciferase Activity (light units) of the (GAL4b.s.)10-Bz1TATA/Luc reporter in maize cells, Experiment #1, with 10 uM Fenoxycarb",[5],77400 light units
same,"Luciferase Activity (light units) of the (GAL4b.s.)10-Bz1TATA/Luc reporter in maize cells, Experiment #1, with 10 uM Methoprene",[5],14800 light units
same,"Luciferase Activity (light units) of the (GAL4b.s.)10-Bz1TATA/Luc reporter in maize cells, Experiment #2, no chemical ligand",[5],178000 light units
same,"Luciferase Activity (light units) of the (GAL4b.s.)10-Bz1TATA/Luc reporter in maize cells, Experiment #2, with 10 uM Methoprene",[5],5730 light units
same,"Luciferase Activity (light units) of the (GAL4b.s.)10-Bz1TATA/Luc reporter in maize cells, with 10 uM Tebufenozide",[5],909000 light units
same,"Luciferase Activity (light units) of the (GAL4b.s.)10-Bz1TATA/Luc reporter in maize cells, with 10 uM Tebufenozide + 10 uM Methoprene",[5],160000 light units
same,"level of tebufenozide-induced activation of luciferase gene expression (fold increase, tebufenozide alone)",[5],6 fold
Juvenile hormone,RXRα-mediated transcriptional activation of a recombinant reporter gene,RXRα,does not induce
